ChEMBL document CHEMBL5678818, “Discovery of potent SOS1 inhibitors that block RAS activation via disruption of the RAS-SOS1 interaction” (Proc Natl Acad Sci U S A, 2019)

Columns and labels:
[1] = target: Phosphatidylinositol 4,5-bisphosphate 3-kinase catalytic subunit gamma isoform (Homo sapiens) (UniProt P48736); test: Inhibition of PIK3CG (unknown origin) assessed as residual activity at 1000 nM by KINOMEscan analysis relative to control
[2] = target: Atypical kinase COQ8A, mitochondrial (Homo sapiens) (UniProt Q8NI60); test: Inhibition of ADCK3 (unknown origin) assessed as residual activity at 1000 nM by KINOMEscan analysis relative to control
Atypical kinase COQ8A, mitochondrial (Homo sapiens), sequence (Q8NI60 163-647 limits assumed): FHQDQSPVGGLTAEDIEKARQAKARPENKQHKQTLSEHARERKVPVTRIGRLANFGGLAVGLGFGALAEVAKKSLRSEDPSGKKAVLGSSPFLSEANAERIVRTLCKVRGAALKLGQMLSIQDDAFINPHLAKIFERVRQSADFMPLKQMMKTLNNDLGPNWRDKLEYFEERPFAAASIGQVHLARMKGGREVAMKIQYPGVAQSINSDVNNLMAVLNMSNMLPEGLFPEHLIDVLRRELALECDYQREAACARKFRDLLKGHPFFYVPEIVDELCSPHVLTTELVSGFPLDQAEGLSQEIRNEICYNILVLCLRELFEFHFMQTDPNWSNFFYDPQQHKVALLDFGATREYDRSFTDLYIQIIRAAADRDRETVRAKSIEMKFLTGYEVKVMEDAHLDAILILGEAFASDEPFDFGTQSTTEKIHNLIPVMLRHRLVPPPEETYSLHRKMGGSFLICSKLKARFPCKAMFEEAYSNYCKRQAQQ

[3] = target: T1, TGF-beta receptor type-1 (Homo sapiens) (UniProt P36897); test: Inhibition of TGFBR1 (unknown origin) assessed as residual activity at 1000 nM by KINOMEscan analysis relative to control
T1 sequence (whole entry): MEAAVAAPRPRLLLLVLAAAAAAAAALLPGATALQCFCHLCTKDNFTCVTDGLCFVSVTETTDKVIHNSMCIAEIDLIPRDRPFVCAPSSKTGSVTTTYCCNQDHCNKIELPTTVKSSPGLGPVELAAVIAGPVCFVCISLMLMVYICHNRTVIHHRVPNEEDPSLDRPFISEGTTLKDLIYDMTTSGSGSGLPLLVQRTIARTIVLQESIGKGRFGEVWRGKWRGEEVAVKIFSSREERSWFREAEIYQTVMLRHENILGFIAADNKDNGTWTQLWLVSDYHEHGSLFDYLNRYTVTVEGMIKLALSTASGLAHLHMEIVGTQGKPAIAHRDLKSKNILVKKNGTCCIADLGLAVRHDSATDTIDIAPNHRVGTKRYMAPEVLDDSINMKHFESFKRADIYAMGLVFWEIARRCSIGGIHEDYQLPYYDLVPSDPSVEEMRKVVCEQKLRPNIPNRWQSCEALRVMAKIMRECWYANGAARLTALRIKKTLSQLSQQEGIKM

[4] = target: T2, cGMP-dependent protein kinase 2 (Homo sapiens) (UniProt Q13237); test: Inhibition of PRKG2 (unknown origin) assessed as residual activity at 1000 nM by KINOMEscan analysis relative to control
T2 sequence (whole entry): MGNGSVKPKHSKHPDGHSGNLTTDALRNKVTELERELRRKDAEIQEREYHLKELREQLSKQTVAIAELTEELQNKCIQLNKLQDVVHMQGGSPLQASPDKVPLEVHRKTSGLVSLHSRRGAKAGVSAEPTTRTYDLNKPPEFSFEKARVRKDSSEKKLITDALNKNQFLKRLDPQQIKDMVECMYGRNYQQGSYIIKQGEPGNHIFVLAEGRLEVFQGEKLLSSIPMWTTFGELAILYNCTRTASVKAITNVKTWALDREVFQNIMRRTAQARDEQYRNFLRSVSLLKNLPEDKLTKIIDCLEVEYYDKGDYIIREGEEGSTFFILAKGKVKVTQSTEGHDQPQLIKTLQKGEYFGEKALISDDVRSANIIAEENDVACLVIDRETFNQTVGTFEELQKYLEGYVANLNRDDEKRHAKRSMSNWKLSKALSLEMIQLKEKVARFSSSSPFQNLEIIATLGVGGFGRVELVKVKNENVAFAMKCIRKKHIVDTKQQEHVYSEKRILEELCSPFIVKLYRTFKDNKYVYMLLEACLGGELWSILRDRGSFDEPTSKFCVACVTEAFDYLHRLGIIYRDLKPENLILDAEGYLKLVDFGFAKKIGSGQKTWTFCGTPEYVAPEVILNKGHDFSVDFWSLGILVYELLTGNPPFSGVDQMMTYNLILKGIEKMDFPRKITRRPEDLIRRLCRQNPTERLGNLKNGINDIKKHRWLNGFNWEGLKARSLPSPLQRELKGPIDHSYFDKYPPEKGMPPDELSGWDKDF

[5] = target: T3, Inhibitor of nuclear factor kappa-B kinase subunit alpha (Homo sapiens) (UniProt O15111); test: Inhibition of IKK-alpha (unknown origin) assessed as residual activity at 1000 nM by KINOMEscan analysis relative to control
T3 sequence (whole entry): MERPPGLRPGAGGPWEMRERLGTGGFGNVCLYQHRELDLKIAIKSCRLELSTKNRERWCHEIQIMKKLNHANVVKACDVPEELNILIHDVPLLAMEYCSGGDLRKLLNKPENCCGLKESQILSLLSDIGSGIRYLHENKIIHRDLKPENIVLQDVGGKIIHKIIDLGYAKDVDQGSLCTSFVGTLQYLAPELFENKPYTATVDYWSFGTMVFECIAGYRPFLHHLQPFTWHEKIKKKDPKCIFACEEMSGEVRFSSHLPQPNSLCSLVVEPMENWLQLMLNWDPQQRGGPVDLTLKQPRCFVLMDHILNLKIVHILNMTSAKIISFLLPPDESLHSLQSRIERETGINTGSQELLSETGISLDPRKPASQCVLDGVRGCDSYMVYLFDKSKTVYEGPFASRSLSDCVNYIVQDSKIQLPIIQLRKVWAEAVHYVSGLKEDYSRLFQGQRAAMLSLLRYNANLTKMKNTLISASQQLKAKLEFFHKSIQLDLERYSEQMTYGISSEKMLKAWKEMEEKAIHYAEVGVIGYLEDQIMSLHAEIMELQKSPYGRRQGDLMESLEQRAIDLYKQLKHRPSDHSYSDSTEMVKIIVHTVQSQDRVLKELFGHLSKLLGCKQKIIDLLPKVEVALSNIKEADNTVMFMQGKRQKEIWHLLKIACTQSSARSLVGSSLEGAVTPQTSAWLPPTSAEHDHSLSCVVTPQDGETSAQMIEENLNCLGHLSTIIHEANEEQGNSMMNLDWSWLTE

[6] = system: Phosphatidylinositol 4,5-bisphosphate 3-kinase catalytic subunit alpha isoform (Homo sapiens), P42336 [H1047Y]; test: Inhibition of PIK3CA H1047Y mutant (unknown origin) assessed as residual activity at 1000 nM by KINOMEscan analysis relative to control
Phosphatidylinositol 4,5-bisphosphate 3-kinase catalytic subunit alpha isoform (Homo sapiens), P42336 [H1047Y], sequence (P42336 whole entry H1047Y, canonical isoform): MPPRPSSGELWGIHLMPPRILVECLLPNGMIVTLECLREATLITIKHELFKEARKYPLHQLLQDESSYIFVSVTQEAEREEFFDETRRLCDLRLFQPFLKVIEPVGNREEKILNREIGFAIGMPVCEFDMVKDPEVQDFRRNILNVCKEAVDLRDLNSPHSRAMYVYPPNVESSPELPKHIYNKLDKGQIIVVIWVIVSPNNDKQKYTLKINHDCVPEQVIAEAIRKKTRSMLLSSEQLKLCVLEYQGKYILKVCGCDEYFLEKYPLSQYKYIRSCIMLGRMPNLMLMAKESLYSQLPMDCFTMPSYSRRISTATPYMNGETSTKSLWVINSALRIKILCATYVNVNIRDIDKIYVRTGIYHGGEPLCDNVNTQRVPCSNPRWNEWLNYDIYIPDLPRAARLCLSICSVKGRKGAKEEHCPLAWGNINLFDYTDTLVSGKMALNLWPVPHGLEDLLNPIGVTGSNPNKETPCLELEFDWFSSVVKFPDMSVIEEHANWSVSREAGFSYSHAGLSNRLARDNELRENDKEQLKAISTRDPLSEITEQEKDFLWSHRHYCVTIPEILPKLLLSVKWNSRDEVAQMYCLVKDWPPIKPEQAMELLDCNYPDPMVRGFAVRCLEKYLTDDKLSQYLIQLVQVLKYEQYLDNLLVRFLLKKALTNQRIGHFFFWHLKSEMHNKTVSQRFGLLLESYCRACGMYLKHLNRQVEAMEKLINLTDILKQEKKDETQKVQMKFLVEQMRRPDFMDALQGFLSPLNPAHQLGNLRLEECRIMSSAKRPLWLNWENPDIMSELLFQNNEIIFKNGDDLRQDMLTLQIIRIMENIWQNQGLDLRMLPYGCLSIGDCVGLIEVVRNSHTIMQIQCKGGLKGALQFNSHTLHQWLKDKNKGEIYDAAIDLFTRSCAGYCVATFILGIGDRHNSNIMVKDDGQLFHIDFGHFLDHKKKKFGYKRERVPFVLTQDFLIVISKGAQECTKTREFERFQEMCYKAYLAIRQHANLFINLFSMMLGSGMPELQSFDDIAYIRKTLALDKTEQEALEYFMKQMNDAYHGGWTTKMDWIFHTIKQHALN

[7] = target: Eukaryotic translation initiation factor 2-alpha kinase 1 (Homo sapiens) (UniProt Q9BQI3); test: Inhibition of EIF2AK1 (unknown origin) assessed as residual activity at 1000 nM by KINOMEscan analysis relative to control
Eukaryotic translation initiation factor 2-alpha kinase 1 (Homo sapiens), sequence (Q9BQI3 whole entry, the tested form may be a part): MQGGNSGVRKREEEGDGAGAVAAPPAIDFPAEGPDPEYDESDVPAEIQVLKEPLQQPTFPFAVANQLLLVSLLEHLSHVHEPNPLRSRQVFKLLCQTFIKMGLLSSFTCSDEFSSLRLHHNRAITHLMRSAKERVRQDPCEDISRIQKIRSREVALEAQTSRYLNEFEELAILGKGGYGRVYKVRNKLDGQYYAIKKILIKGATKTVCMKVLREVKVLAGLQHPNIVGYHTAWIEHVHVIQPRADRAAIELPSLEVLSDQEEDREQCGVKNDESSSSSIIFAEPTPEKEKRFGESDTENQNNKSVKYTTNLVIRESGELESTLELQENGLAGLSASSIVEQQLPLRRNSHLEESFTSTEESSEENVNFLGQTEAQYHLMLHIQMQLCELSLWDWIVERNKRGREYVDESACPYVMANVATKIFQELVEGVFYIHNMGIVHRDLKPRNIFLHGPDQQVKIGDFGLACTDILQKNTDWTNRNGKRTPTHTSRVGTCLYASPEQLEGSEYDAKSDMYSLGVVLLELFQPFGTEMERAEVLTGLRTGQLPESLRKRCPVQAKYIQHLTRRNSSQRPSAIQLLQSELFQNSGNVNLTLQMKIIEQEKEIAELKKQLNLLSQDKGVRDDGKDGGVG

[8] = target: Non-receptor tyrosine-protein kinase TYK2 (Homo sapiens) (UniProt P29597); test: Inhibition of TYK2 JH2 pseudokinase domain (unknown origin) assessed as residual activity at 1000 nM by KINOMEscan analysis relative to control
Non-receptor tyrosine-protein kinase TYK2 (Homo sapiens), sequence (P29597 whole entry, the tested form may be a part): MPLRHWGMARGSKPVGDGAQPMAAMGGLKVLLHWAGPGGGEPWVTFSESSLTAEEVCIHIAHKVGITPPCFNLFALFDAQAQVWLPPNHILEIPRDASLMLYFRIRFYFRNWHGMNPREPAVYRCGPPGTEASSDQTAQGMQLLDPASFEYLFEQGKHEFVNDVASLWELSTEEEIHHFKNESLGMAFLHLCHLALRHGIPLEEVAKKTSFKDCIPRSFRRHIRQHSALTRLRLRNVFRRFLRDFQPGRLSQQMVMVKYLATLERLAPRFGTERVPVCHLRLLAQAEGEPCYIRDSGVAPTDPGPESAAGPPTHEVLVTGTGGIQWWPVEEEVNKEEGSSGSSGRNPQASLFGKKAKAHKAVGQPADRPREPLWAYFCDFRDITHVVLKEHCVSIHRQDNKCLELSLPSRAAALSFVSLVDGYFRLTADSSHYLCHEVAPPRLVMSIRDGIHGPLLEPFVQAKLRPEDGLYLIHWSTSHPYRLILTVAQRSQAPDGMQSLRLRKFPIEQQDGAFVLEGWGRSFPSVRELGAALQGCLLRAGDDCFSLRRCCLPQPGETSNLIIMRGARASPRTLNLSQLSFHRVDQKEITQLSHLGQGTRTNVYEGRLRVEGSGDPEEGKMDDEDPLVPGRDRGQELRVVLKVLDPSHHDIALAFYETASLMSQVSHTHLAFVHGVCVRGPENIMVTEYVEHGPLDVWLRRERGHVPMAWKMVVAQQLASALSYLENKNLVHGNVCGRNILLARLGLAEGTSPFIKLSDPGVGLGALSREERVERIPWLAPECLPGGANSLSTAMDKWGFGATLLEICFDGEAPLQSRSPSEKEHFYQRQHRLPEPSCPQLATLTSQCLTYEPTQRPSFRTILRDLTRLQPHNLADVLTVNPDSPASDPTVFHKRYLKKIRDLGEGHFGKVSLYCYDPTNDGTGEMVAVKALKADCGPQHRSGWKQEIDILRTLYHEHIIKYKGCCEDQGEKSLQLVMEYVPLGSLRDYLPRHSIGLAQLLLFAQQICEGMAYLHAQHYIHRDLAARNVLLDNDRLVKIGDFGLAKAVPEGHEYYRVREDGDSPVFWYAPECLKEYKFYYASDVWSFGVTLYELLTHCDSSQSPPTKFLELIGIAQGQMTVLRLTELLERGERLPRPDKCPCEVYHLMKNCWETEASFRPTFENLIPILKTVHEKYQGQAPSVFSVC

[9] = target: Serine/threonine-protein kinase SBK1 (Homo sapiens) (UniProt Q52WX2); test: Inhibition of SBK1 (unknown origin) assessed as residual activity at 1000 nM by KINOMEscan analysis relative to control
Serine/threonine-protein kinase SBK1 (Homo sapiens), sequence (Q52WX2 whole entry): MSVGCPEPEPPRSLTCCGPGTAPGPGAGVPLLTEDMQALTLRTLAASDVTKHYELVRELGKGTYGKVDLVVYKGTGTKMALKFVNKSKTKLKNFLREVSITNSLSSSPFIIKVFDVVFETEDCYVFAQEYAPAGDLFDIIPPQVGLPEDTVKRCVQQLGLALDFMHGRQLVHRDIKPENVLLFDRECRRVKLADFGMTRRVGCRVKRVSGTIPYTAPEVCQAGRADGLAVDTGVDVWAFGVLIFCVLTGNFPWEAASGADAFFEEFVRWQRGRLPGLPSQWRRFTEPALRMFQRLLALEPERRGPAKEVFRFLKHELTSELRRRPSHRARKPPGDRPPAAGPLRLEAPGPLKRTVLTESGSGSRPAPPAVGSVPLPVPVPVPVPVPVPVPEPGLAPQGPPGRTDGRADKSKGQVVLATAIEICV

Phosphatidylinositol 4,5-bisphosphate 3-kinase catalytic subunit gamma isoform (Homo sapiens), sequence (P48736 whole entry, looked up, canonical isoform): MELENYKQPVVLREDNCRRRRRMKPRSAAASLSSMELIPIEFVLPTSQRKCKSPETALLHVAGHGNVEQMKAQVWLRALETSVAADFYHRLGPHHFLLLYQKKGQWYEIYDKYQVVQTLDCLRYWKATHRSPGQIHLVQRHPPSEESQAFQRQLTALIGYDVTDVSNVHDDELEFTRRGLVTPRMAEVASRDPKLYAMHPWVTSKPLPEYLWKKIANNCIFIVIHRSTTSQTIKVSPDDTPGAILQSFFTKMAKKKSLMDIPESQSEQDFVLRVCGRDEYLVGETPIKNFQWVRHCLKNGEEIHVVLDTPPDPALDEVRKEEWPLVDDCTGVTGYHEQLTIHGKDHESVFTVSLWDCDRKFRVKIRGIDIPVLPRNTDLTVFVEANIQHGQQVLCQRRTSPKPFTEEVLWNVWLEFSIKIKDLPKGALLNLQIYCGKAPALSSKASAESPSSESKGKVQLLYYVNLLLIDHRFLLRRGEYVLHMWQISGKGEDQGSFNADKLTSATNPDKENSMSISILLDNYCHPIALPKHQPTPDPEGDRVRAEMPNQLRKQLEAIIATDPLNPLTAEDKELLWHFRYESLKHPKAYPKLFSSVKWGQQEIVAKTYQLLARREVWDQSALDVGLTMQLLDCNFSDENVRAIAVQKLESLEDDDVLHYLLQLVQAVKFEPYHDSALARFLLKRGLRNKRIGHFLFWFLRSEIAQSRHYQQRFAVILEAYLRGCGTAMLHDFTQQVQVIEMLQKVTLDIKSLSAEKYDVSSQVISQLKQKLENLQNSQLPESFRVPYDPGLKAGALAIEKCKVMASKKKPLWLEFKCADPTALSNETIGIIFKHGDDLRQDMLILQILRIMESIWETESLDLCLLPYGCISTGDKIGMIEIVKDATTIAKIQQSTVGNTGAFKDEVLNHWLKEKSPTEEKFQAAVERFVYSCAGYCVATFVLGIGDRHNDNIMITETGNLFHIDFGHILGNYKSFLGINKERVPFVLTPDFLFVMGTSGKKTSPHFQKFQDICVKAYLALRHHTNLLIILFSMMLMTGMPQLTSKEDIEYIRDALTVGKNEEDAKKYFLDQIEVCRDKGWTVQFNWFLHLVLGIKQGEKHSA

SMILES	Activity [1]	Activity [2]	Activity [3]	Activity [4]	Activity [5]	Activity [6]	Activity [7]	Activity [8]	Activity [9]
COc1cc2ncnc(N[C@H](C)c3cccc4ccccc34)c2cc1OC	83%	94%	100%	91%	70%	89%	88%	100%	86%
COc1cc2nc(C)nc(N[C@H](C)c3cccc(-c4cn[nH]c4)c3)c2cc1OC	97%	98%	100%	98%	81%	63%	100%	80%	85%
